Test results: patent publication US5861426A, “Nitro compounds of the formula A-Xi -NO2 and their compositions having anti-inflammatory, analgesic and anti-thrombotic activities” (Nicox S.A., priority 1994, dated 1999)

Legend:
[1] = tested on: isolated rat aorta; experiment: Vasodilative activity, inhibition of contraction induced by epinephrine; conditions: in vitro, 10^-5 to 10^-7 molar range
Source text: (§1) Example of the anti-cyclooxygenase (I), platelet anti-aggregating (II) and vasodilative (III) properties of the test compounds tested in vitro at concentrations in the molar range from 10^-5 to 10^-7 of the product in water/alcohol with the addition of small amounts of DMSO (dimethylsulphoxide). The activities are expressed as the potency ratio versus the natural product used as a unit standard, as stated in Table

[2] = tested on: cyclo-oxygenase; experiment: Anti-cyclooxygenase activity; assay type: cell-based; conditions: for anti-cyclooxygenase (I), potency ratio versus natural product: in vitro, 10^-5 to 10^-7 molar range, natural product = 1.0
Description: (§2) The activity inhibiting cyclo-oxygenase was determined in isolated cells. Endothelial cells of bovine aorta were used as a source of COX-1 and macrophage line J774.2 as a source of COX-2. The same conditions described by Mitchell et al. (Proc. Nat. Acad. Sci. 90, 11693, 1993) for growth and the viability test were used.
(§3) In brief, the cells were incubated for 30 minutes with scalar concentrations of the test product and the substrate (arachidonic acid) was then added and incubated for another 15 minutes. Enzyme activity was determined radioimmunologically by measuring the formation of 6-keto-PGF 1 alpha. In the case of cell lines J.774.2, the cells were incubated for 12 hours with endotoxin to promote COX-2 formation.
as §1

[3] = target: T1, COX-1 (Bos taurus, UniProt O62664); experiment: COX-1 inhibition in isolated cells; assay type: cell-based, bovine; conditions: endothelial cells of bovine aorta, read-out: COX-1 response, % of the controls with response variability; for remaining activity at 1000 µg/mL: 1.0 mg/ml
T1 construct: Endothelial cells of bovine aorta were used as a source of COX-1; endogenous in cells; host or cells: bovine aortic endothelial cells
T1 sequence (O62664 25-600): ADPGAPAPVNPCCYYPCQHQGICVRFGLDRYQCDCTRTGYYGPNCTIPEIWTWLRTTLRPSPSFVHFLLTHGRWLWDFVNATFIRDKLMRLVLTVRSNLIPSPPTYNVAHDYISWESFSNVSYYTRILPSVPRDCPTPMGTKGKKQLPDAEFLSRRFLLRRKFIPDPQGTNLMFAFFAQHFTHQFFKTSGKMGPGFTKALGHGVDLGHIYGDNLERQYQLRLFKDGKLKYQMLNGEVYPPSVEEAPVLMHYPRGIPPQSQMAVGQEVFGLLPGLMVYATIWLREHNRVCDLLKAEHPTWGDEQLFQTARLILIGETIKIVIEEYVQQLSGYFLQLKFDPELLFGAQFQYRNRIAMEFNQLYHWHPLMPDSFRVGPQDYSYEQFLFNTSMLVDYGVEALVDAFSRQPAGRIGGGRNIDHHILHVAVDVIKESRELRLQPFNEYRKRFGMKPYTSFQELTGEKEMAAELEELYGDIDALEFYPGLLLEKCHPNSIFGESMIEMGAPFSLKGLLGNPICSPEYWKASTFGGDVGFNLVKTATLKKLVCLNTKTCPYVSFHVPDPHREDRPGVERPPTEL
Description: as §2, §3
(§4) Study of the anti-cyclooxygenase (COX-1/COX-2) properties in isolated cells.
(§5) Response expressed as a % of the controls with relative response variability.

[4] = target: T2, COX-2 (Mus musculus, UniProt Q05769); experiment: COX-2 inhibition in isolated cells; assay type: cell-based; conditions: macrophage line J774.2 with endotoxin, read-out: COX-2 response, % of the controls with response variability; for remaining activity at 100 µg/mL: 0.1 mg/ml; for remaining activity at 1000 µg/mL: 1.0 mg/ml
T2 construct: endogenous in cells; host or cells: J774.2 macrophages, 12 h with endotoxin
T2 sequence (Q05769 18-604): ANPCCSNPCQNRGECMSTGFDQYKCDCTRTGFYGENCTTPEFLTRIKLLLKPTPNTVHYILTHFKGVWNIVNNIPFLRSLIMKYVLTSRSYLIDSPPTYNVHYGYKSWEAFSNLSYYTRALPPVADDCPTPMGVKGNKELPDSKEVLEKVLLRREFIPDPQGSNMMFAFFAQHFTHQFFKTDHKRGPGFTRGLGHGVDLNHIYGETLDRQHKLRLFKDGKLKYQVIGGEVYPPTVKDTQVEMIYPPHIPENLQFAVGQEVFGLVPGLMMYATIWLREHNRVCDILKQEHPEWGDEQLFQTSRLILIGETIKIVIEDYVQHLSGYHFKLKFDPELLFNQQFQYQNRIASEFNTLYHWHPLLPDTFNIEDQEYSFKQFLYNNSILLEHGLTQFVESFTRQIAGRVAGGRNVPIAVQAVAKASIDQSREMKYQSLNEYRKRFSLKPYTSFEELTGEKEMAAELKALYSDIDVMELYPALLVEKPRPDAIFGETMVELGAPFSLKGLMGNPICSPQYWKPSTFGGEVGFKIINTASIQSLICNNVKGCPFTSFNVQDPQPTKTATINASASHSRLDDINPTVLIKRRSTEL
Description: as §2, §3, §4, §5

[5] = tested on: nitrosynthetase (NOS); experiment: Nitrosynthetase (NOS) activity induced by LPS in rats; assay type: in vivo, rat; conditions: oral, LPS only = 100
Description: The nitrosynthetase inhibition activity induced by lipopolysaccharide (LPS) was determined in rat neutrophils and stomach after administration of one of the test compounds and compared with that obtained after treatment of the suspension vehicle only.
In brief, Wistar rats fasting for 24 hours before treatment were orally administered the test product (10 mg/Kg) and intravenously (caudal vein) administered LPS (5 mg/Kg).
Four hours later the animals were sacrificed and the blood--for neutrophils isolation--and the stomach taken.
Enzyme activity was determined in accordance with the method described by Assreuy et al. (Br. J. Pharmacol. 108, 833, 1993).
Study of the inhibitory properties of the nitrosynthetase (NOS) activity induced by liposaccharide (LPS) in rats using oral doses ranging from 5 to 20 mg/Kg suspended in a carboxymethylcellulose base.

[6] = tested on: human platelets stimulated by thrombin; experiment: Platelet anti-aggregating activity in vitro; assay type: cell-based; conditions: 10^-5 to 10^-7 molar range, natural product = 1.0
Source text: as §1

[7] = tested on: Swiss mice; experiment: Analgesic activity (Hendershot et al.); assay type: in vivo; conditions: oral 3 to 30 mg/Kg in carboxymethylcellulose, natural product = 1.0
Description: (§6) Study of the anti-inflammatory (I) and analgesic (II) properties (pharmacodynamics) and gastrointestinal tolerance (III) (toxicity) of the test compounds after oral administration of doses ranging from 3 to 30 mg/Kg in carboxymethylcellulose suspensions and constructing dose-responsecurves. […] Activities are expressed as the potency ratio compared to the natural product used as a unit standard.

[8] = tested on: gastropathy; experiment: Gastric tolerance, severity of induced gastropathy; conditions: rats, oral 3 to 30 mg/Kg in carboxymethylcellulose; natural product = 1.0
Description: Gastric tolerance was measured by oral administration to rats assessing the severity of the gastropathy induced in accordance with the criteria described by Wallace et al. (Am. J. Physiol. 259, G642, 1990).
Study of the anti-inflammatory (I) and analgesic (II) properties (pharmacodynamics) and gastrointestinal tolerance (III) (toxicity) of the test compounds after oral administration of doses ranging from 3 to 30 mg/Kg in carboxymethylcellulose suspensions and constructing dose-responsecurves.
Activities are expressed as the potency ratio compared to the natural product used as a unit standard. The nitroderivative is that of the shown examples, the natural reference compound is that shown as a reference.

[9] = tested on: carrageenin-oedema; experiment: Anti-inflammatory activity, carrageenin-oedema method; assay type: in vivo; conditions: rats, oral 3 to 30 mg/Kg in carboxymethylcellulose; natural product = 1.0
Description: as §6

| Compound | vasodilative (III), % of inhibitory action of the vasospasm induced by epinephrine [1] | analgesic properties (II), potency ratio versus natural reference product [7] | gastrointestinal tolerance (III) (toxicity), potency ratio versus natural reference product [8] | anti-inflammatory properties (I), potency ratio versus natural reference product [9] | further results |
| --- | --- | --- | --- | --- | --- |
| CC(=O)Oc1ccccc1C(=O)O [ASPIRIN, acetylsalicylic acid, reference compound] | inactive | – | – | – | – |
| O=C(Cc1ccccc1Nc1c(Cl)cccc1Cl)OCCCCO[N+](=O)[O-] [DICLOFENAC NITROXYBUTYLESTER, reference compound] | – | – | – | – | direct inhibition of cyclo-oxygenase COX-1 and COX-2 ([2]; Table 4 data): capable of directly inhibiting cyclo-oxygenase COX-1 and COX-2; remaining activity at 100 µg/mL ([3]; 0.1 mg/ml): 45 ± 22%; remaining activity at 1000 µg/mL [3]: 24 ± 10%; remaining activity at 100 µg/mL [4]: 68 ± 11%; remaining activity at 1000 µg/mL [4]: 41 ± 11%; NOS, neutrophils; inhibition relative to the group treated with LPS only [5]: 49; NOS, stomach; inhibition relative to the group treated with LPS only [5]: 37 |
| O=C(O)Cc1ccccc1Nc1c(Cl)cccc1Cl [DICLOFENAC, reference compound] | inactive | – | – | – | – |
| CC(=O)Oc1ccccc1C(=O)OCCOCCO[N+](=O)[O-] [Example 1a, 2-acetoxy-benzoate of 2-[2-(nitroxy)ethoxy]ethyl] | 60% | 1.1 | 0.2 | 1.2 | platelet anti-aggregating (II), potency ratio versus natural product [6]: 3.0; anti-cyclooxygenase (I), potency ratio versus natural product [2]: 1.5 |
| CC(C(=O)Oc1cccc(CO[N+](=O)[O-])c1)c1cccc(C(=O)c2ccccc2)c1 (stereo not shown) [Example 1c, 2-(3-benzoyl)phenylpropionate of 3-(nitroxymethyl)phenyl] | 50% | 1.2 | 0.1 | 1.0 | platelet anti-aggregating (II), potency ratio versus natural product [6]: 1.8; anti-cyclooxygenase (I), potency ratio versus natural product [2]: 1.2; NOS, neutrophils; inhibition relative to the group treated with LPS only [5]: 30; NOS, stomach; inhibition relative to the group treated with LPS only [5]: 40 |
| CC(C)Cc1ccc(C(C)C(=O)OCCOCCO[N+](=O)[O-])cc1 (stereo not shown) [Example 1d] | – | 1.1 | 0.1 | 1.0 | – |
| CC(C(=O)OCCOCCO[N+](=O)[O-])c1ccc(-c2ccccc2)c(F)c1 (stereo not shown) [Example 1e] | – | 1.0 | 0.1 | 1.0 | remaining activity at 1000 µg/mL [3]: 22 ± 3%; remaining activity at 100 µg/mL [4]: 47 ± 4%; remaining activity at 1000 µg/mL [4]: 18 ± 2% |
| O=C(c1ccccc1)c1ccc2n1CCC2C(=O)OCCOCCO[N+](=O)[O-] (stereo not shown) [Example 1f] | – | 1.0 | 0.1 | 1.0 | – |
| CC(C(=O)OCCOCCO[N+](=O)[O-])c1ccc(C(=O)c2ccccc2)s1 (stereo not shown) [Example 1g] | – | 1.3 | 0.1 | 0.9 | – |
| COc1ccc2cc(C(C)C(=O)OCCOCCO[N+](=O)[O-])ccc2c1 (stereo not shown) [Example 1h] | – | 1.3 | 0.1 | 1.3 | – |
| CC(C(=O)O)c1ccc(-c2ccccc2)c(F)c1 (stereo not shown) [FLURBIPROFEN, reference compound] | – | 1.0 | – | 1.0 | – |
| CC(C)Cc1ccc(C(C)C(=O)O)cc1 (stereo not shown) [IBUPROFEN, reference compound] | – | 1.0 | 1.0 | 1.0 | – |
| CC(C(=O)O)c1cccc(C(=O)c2ccccc2)c1 (stereo not shown) [KETOPROFEN, 2-(3-benzoyl)phenyl propionic acid, reference compound] | inactive | – | – | – | – |
| O=C(c1ccccc1)c1ccc2n1CCC2C(=O)O (stereo not shown) [KETOROLAC, reference compound] | – | 1.0 | 1.0 | 1.0 | – |
| CC(C(=O)OCCCCO[N+](=O)[O-])c1cccc(C(=O)c2ccccc2)c1 (stereo not shown) [NITROXYBUTYLKETOPROFEN, reference compound] | – | – | – | – | NOS, neutrophils; inhibition relative to the group treated with LPS only [5]: 55; NOS, stomach; inhibition relative to the group treated with LPS only [5]: 35 |
| CC(C(=O)O)c1ccc(C(=O)c2ccccc2)s1 (stereo not shown) [TIAPROFENIC ACID, reference compound] | – | 1.0 | 1.0 | 1.0 | – |
